In EP2982368A1, “Small molecule compounds displacing focal adhesion core components” (Universität Konstanz, priority 2014, dated 2016):

Experiments:
NIH-v-Src fibroblasts = assay: EGF-stimulated cell migration of transformed cells; type: cell-based; conditions: 10 ng/ml EGF, tracked 6 h before and 6 h after addition
Description: (§1) Image J was used to automatically quantify FAK-containing focal adhesions due to local maxima of fluorescence intensity in the GFP-channel (5 to 70 pixel). The number of cells was automatically counted in the Hoechst channel. To test reproducibility of the system 40 control wells were quantified wherein four positions for each well were imaged. […] GFP-FAK mouse embryonic fibroblasts were seeded on fibronectin and incubated for 1 h with the indicated concentrations of the small compounds, respectively. […] GFP-FAK mouse embryonic fibroblasts were seeded on fibronectin and serum-starved overnight. The indicated concentrations of Mb31 were applied for 30 min. Cells were lysed and analyzed for paxillin and FAK protein level as well as FAK Tyr397 phosphorylation. […] The purified kinase domain of FAK was incubated with increasing amounts of Mb31 for 1 h at 30°C together with poly-Glu-Tyr as a FAK substrate. […] Serum-starved GFP-FAK mouse embryonic fibroblasts were stimulated with normal growth medium and incubated for 5 h with the indicated concentrations of the small molecule compounds, respectively. Cell viability was assessed by MTT assay. […] GFP-FAK MEFs were seeded on fibronectin and serum-starved overnight. Migration was stimulated by replacing the medium with normal growth medium. Migration of single cells was tracked for 8 h in 30 min intervals. Migration was recorded from cells that were cultured without serum (A), with serum (B) or with serum in the presence of 3 µM Mb31 (C). […] (A) GFP-FAK MEFs were seeded and serum-starved as in Figure 10. Cell migration was stimulated with normal growth medium and single cells were tracked for 5 h. […] Mouse embryonic fibroblasts (MEFs) were transfected with talin-mCherry and talin dynamics analyzed in focal adhesions using fluorescence recovery after photobleaching (FRAP). […] (C) Wound closure was microscopically analyzed and evaluated using ImageJ software.
To further determine whether Mb31 interferes with cell motility, GFP-FAK MEFs were serum-stimulated and migration was quantified on a single cell basis (Figures 11 and 12). […]

[1] = test system: MDA-MB-231 breast cancer cells; assay: In vitro wound healing assay; type: cell-based, human; conditions: 3 µM, 25 h, serum-containing growth medium
Description: as §1, with “h. (B) Mb31 was added and the same cells were tracked for additional 5 h. (C) Mean velocities of differently treated cells were plotted over time. […] NIH-v-Src fibroblasts were seeded on 2 µg/ml FN in DMEM/0.5%BSA and stimulated with 10 ng/ml EGF or kept unstimulated.” for “h.”, “(FRAP). Cells were left untreated (A) or treated with 10 µM of Mb31 (B). In untreated cells, the mCherry intensity recovered, indicating replacement of bleached by non-bleached talin and therefore turnover of talin at focal adhesions.” for “(FRAP).”
To determine if the migration of transformed cells can be blocked by FLocker1 and related compounds, human breast carcinoma cells (MDA-MB-231) were used in in vitro wound healing assays. […] The ability of the cells to migrate and close the wound space was monitored by microscopy and quantified (Figure 18B and C).

FAK/Paxillin = molecular target: T1, FAK/Paxillin (Mus musculus, UniProt P34152+Q8VI36); assay: FAK/Paxillin displacement by structurally related compounds (FootLocker series, confocal microscopy); type: cell-based
T1 construct: expressed in transfected cells; host or cells: mouse fibroblasts stably expressing GFP-FAK
T1 sequence (P34152 whole entry): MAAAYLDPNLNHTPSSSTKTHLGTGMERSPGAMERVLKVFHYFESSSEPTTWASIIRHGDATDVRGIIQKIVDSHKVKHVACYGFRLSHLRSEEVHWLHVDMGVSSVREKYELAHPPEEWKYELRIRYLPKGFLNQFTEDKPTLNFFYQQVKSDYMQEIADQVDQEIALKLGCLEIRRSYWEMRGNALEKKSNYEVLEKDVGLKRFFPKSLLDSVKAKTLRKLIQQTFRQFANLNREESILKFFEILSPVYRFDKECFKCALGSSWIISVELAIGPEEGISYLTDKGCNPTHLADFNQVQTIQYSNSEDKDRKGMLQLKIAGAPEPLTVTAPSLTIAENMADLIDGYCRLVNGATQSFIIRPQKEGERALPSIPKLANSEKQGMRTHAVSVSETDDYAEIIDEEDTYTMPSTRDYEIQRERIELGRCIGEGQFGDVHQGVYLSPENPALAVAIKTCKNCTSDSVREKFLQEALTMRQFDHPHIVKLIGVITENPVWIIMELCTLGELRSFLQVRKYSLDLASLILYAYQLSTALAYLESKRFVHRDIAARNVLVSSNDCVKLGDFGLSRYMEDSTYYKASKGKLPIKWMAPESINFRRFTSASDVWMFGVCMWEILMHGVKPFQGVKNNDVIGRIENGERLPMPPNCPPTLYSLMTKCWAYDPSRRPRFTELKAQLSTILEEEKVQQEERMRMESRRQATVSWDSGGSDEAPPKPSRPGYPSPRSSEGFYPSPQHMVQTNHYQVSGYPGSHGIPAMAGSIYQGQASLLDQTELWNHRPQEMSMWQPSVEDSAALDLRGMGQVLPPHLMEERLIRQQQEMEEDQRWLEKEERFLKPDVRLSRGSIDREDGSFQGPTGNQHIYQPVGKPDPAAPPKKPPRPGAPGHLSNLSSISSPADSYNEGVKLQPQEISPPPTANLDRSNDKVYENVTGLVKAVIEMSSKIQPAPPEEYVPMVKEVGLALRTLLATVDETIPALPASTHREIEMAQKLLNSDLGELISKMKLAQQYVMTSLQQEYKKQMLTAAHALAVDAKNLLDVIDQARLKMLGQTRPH
T1 sequence (Q8VI36 whole entry): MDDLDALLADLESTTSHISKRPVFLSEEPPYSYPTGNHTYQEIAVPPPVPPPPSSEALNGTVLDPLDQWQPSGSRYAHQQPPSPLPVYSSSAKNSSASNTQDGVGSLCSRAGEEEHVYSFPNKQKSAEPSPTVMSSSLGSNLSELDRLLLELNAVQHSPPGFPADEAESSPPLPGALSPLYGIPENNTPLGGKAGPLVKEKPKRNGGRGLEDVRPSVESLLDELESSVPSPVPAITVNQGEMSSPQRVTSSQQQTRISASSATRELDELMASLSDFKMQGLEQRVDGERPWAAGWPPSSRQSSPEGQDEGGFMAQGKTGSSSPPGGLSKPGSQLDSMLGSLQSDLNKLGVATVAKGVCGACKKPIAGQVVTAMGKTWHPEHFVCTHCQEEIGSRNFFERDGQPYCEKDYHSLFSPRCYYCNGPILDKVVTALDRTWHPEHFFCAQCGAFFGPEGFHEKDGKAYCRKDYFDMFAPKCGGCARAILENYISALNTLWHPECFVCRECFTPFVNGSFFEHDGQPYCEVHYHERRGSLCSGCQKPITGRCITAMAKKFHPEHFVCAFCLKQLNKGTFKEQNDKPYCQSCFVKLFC
Description: To determine whether compounds structurally related to Mb31 and Mb36 are likewise suitable to interfere with FAK localization at focal adhesions, mouse fibroblasts stably expressing GFP-FAK were treated for 30 min with 1, 10 or 20 µM of the following compounds: trans-3-hydroxy-β-nitrostyrene (THBN), trans-4-Chloro-β-nitrostyrene (T4CN), trans-β-nitrostyrene (TBN), 4-chlorocinnamic acid (4CA), and trans-3-(4-bromothiophen-2-yl)acrylic acid (T34BA) (Figures 16 and 17). The cells were analyzed by confocal microscopy for GFP-FAK localization. DMSO treatment served as a vehicle control. […] Additional substituents at the aromatic structures, such as halogen atoms or hydroxy groups may contribute to the reactivity of the compound, but are not essential. Based on these findings, the inventors have extended their structure activity-relationship studies and synthesized additional related compounds, which, similar to Mb31, displace FAK and paxillin at concentrations below 10µM (++), displace FAK and paxillin at concentrations above 10 µM (+), or lack FAK and paxillin displacing activity (-). All these substances were then also nicknamed in the FLocker terminology, resulting in FLocker1 - FLocker24 (Table 2). Table 2: Overview of FootLocker nomenclature, their chemical notation/structure and the activity towards FAK/Paxillin displacement

SMILES	migration of EGF-stimulated cells (NIH-v-Src fibroblasts)	migration of cancer cells / wound closure [1]	compounds showing the most prominent effect on protein-protein interactions at focal adhesion site (FAK/Paxillin)	disruption of protein-protein interactions at focal adhesion site (FAK/Paxillin)	FAK displacing ability (FAK/Paxillin; GFP-FAK mouse fibroblasts, 30 min, 1, 10 or 20 µM)
CN(c1ccccc1CNc1nc(Nc2ccc3c(c2)CC(=O)N3)ncc1C(F)(F)F)S(C)(=O)=O [PF431396]	efficiently inhibit the migration				
O=[N+]([O-])/C=C/c1ccc(F)cc1 [FootLocker 14, (E)-1-fluoro-4-(2-nitrovinyl)benzene]		retarded the migration of the cancer cells	most prominent effect	efficiently disrupt protein-protein interactions at focal adhesion site	
O=[N+]([O-])/C=C/c1cccc(O)c1 [FootLocker 3, (E)-3-(2-nitrovinyl)phenol]		retarded the migration of the cancer cells	most prominent effect	efficiently disrupt protein-protein interactions at focal adhesion site	
O=C(O)/C=C/c1cc(Br)cs1 [FootLocker 24, trans-3-(4-Bromothiophen-2-yl)acrylic acid, reference compound]	no effect				without FAK displacing ability
